Results as given in paper PMC12337082 (Journal of Biochemical and Molecular Toxicology, 2025).

Experiments:
[1] = test system: MCF‐7, MDA‐MB‐231, and L‐929 cells; experiment: Mitochondrial membrane potential (JC‐1) apoptosis assay, statements over all cell lines; assay type: cell-based; settings: MMP assay, similar levels for all cells including L‐929
Procedure: Apoptosis was also investigated by evaluating mitochondrial membrane potential changes (MMP assay). MCF‐7, MDA‐MB‐231, and L‐929 cells were stained with JC‐1 dye according to the manufacturer's protocols (JC‐1 MMP Assay Kit, KA1324, Abnova). The apoptotic to healthy cell ratio was calculated using absorbances collected from two different fluorescence channels (535/595 for healthy cells, 485/535 for apoptotic cells) (Synergy H1, Biotech Instruments Inc., Vermont, USA).

MDA‐MB‐231 [2] = experiment: MTT cell viability assay, MDA‐MB‐231; assay type: cell-based, human; settings: Homo sapiens, MTT
From the text: (§1) MCF‐7, MDA‐MB‐231, and L‐929 mouse fibroblast cell lines were obtained from the American Type Culture Collection (ATCC, Manassas, Virginia, USA). MCF‐7 is a hormone‐responsive, differentiated mammary epithelium cell line with an ER+, PR+, and HER2‐ pattern (ATCC, HTB‐22). MDA‐MB‐231 is a triple‐negative differentiated mammary epithelium cell line (ATCC, HTB‐26). The L‐929 mouse fibroblast cell line is derived from the normal subcutaneous connective tissue of a mouse and is commonly used in cytotoxicity assays (ATCC, CCL‐1). All cell lines were cultured in DMEM medium (Dulbecco's Modified Eagle Medium, Gibco), supplemented with 10% fetal bovine serum (Gibco), 1% glutamine, and penicillin/streptomycin (Gibco) in a humidified atmosphere containing 5% CO2 at 37°C. Cell viability was tested using Trypan blue staining.
(§2) The MTT [3‐(4,5‐dimethylthiazol‐2‐yl)−2,5‐diphenyltetrazolium bromide] assay is a colorimetric assay for determining cell metabolic activity. In the MTT assay, the yellow dye MTT that dissolves in water is changed by mitochondrial reductase into a purple formazan that is non‐soluble. The water‐insoluble formazan produced is solubilized in a solubilization buffer, and absorbances are detected.
(§3) In 96‐well plates, the cells were cultivated at a density of 5 × 10^3 cells/well using 100 µL medium. […] 10 μL of the MTT labeling reagent (final concentration 0.5 mg/mL) were added to each well at the end of the incubation periods, and the wells were incubated for an additional 4 h. Next, each well received 100 μL of solubilization buffer (10% SDS in 0.01 M HCl) and was overnight incubated, and the absorbance of formazan products was evaluated at 550 nm using a multi‐mode microplate reader (Synergy H1, Biotech Instruments Inc., Vermont, USA). The results were normalized relative to the absorbances of calculated percent concentrations of DMSO. All tests involved three replicates with three independent experiments.
(§4) All statistical evaluations, including t‐tests and IC50 values, were calculated using the GraphPad Prism software tool (v6.0, GraphPad Software Inc., San Diego, USA). Statistical significance was defined as p ˂ 0.05 (*p < 0.05, **p < 0.01, ***p < 0.001, ****p < 0.0001).

Leukemia = test system: Leukemia; set-up: method as in Nakamura et al. (2004) [60]; settings: 72 h, ref Nakamura et al. (2004) [60]; cited from earlier work
MCF‐7 [3] = experiment: MTT cell viability assay, MCF‐7; assay type: cell-based, human; settings: Homo sapiens, MCF7, MTT
From the text: as §1, §2, §3, §4

PGE2 release [4] = experiment: PGE2 ELISA, MDA‐MB‐231; assay type: cell-based, human; settings: MDA‐MB‐231, 0.5 mM, 24 h
Procedure: (§5) PGE2 ELISA kit (ENZO, ADI‐900‐001) was used to determine prostaglandin synthesis levels. MCF‐7 and MDA‐MB‐231 breast cancer cells were cultured at a density of 1 × 10^6 cells/well in a 6‐well culture dish. […] Following 24 h of incubation, the medium was replaced with a fresh one, 10 µM arachidonic acid was added, and it was further incubated for 1 h. The PGE2 levels were determined according to the kit protocol.

SSC‐9 skin cancer = test system: SSC‐9 skin cancer; set-up: method as in Abo Aasy et al. (2019) [62]; settings: 24 h, ref Abo Aasy et al. (2019) [62]; cited from earlier work
[5] = test system: L‐929 mouse fibroblast cell line; experiment: MTT cell viability assay, L‐929 control fibroblasts; assay type: cell-based; settings: Mus musculus
From the text: as §1, §2, §3, §4

[6] = test system: MCF‐7, MDA‐MB‐231, and L‐929; experiment: MTT cell viability assay, statements over all cell lines; assay type: cell-based
From the text: as §1, §2, §3
All statistical evaluations, including t‐tests and IC50 values, were calculated using the GraphPad Prism software tool (v6.0, GraphPad Software Inc., San Diego, USA). […]

MCF‐7 [7] = experiment: Annexin V/PI staining, Tali image‐based cytometry, MCF‐7; assay type: cell-based, human; settings: MCF‐7, 24 h
From the text: (§6) To assess apoptosis and cell death, cells were stained with Annexin V‐PI dyes (Tali Apoptosis Kit‐Annexin V Alexa Fluor 488 and PI‐, Molecular Probes A10788, Invitrogen) and quantified using Tali Image‐Based Cytometer (Invitrogen) and fluorescence microscopy (Olympus CKX41 Inverted Phase Contrast Fluorescence Microscope furbished with reflected fluorescence illuminator CKX‐RFA).
(§7) To assess whether our compounds produce their cytotoxic effects through induction of apoptosis, apoptosis was investigated using Annexin V/PI labeling and MMP methods (Figures 4A−C). In addition, by utilizing TALI image‐based cytometry and fluorescent microscopy, the number of cells was analyzed for different concentrations of agents (Table 4).

PGE2 release [8] = experiment: PGE2 ELISA, MCF‐7; assay type: cell-based, human; settings: MCF‐7, 0.5 mM, 24 h
Procedure: as §5

MDA‐MB‐231 [9] = experiment: Annexin V/PI staining, Tali image‐based cytometry, MDA‐MB‐231; assay type: cell-based, human; settings: MDA‐MB‐231, 24 h
From the text: as §6, §7

## CCc1cccc2c3c([nH]c12)C(CC)(CC(=O)O)OCC3 (stereo not shown) [Etodolac, 2‐(1,8‐diethyl‐1,3,4‐tetrahydropyrano [3,4‐b]indol‐1‐yl) acetic acid, reference compound]
[1]
  Concentration after which apoptotic increases became detectable: 0.5−1.0 mM
MDA‐MB‐231 [2]; MDA-MB-231, 24 h, MDA‐MB‐231, 24 h
  IC50: 740 ± 1.65 µM
MDA‐MB‐231 [2]; MDA-MB-231, 48 h, MDA‐MB‐231, 48 h
  IC50: 699 ± 4.61 µM
MDA‐MB‐231 [2]; MDA-MB-231, 72 h, MDA‐MB‐231, 72 h
  IC50: 578 ± 3.65 µM
Leukemia
  IC50: 50 to 100 µM
MCF‐7 [3]; MCF‐7, 24 h
  IC50: 750 ± 4.2 µM
MCF‐7 [3]; MCF‐7, 48 h
  IC50: 731 ± 1.37 µM
MCF‐7 [3]; MCF‐7, 72 h
  IC50: 555 ± 2.42 µM
PGE2 release [4]
  Inhibition of PGE2 release: 38%
SSC‐9 skin cancer
  IC50: 983 µM
[5]; L929, 24 h, L‐929, 24 h
  IC50: 735 ± 3.7 µM
[5]; L929, 48 h, L‐929, 48 h
  IC50: 751 ± 9.5 µM
[5]; L929, 72 h, L‐929, 72 h
  IC50: 622 ± 4.7 µM
[6]; all cell lines including healthy controls
  Concentration at which viability of the cells was reduced: 0.2−0.5 mM
[6]; read-out: IC50 range
  IC50: 500 to 1000 µM
MCF‐7 [7]; 100 µM
  Apoptotic cells: 1%
  Dead cells: 5%
  Live cells: 94%
MCF‐7 [7]; 250 µM
  Apoptotic cells: 2%
  Dead cells: 6%
  Live cells: 92%
MCF‐7 [7]; 500 µM
  Apoptotic cells: 7%
  Dead cells: 9%
  Live cells: 84%
MCF‐7 [7]; 1000 µM
  Apoptotic cells: 5%
  Dead cells: 8%
  Live cells: 87%
PGE2 release [8]
  Inhibition of PGE2 release: 57%
MDA‐MB‐231 [9]; 100 µM
  Apoptotic cells: 1%
  Dead cells: 4%
  Live cells: 95%
MDA‐MB‐231 [9]; 250 µM
  Apoptotic cells: 1%
  Dead cells: 5%
  Live cells: 94%
MDA‐MB‐231 [9]; 500 µM
  Apoptotic cells: 6%
  Dead cells: 10%
  Live cells: 84%
MDA‐MB‐231 [9]; 1000 µM
  Apoptotic cells: 11%
  Dead cells: 13%
  Live cells: 76%
